Assay in all cases: NCI-60 cell line screen, 48 h
The test system of assay [1] is NCI-H23 lung.
Assay [2] has as its system OVCAR-3 ovarian.
The subject of assay [3] is HCC-2998 colon.
For assay [4], the system named is A498 renal.
In assay [5] the test system is TK-10 renal.
Assay [6] relates to SF-295 CNS.
The subject of assay [7] is IGROV1 ovarian.
For assay [8], the system named is BT-549 breast.
The subject of assay [9] is MOLT-4 leukemia.
Assay [10] has as its system HL-60(TB) leukemia.

The structures appear in SMILES notation.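 Results reflect a 48-hour exposure of cells in 96-well plates to compound at five concentrations. At the GI50, growth is halved. TGI: total growth inhibition.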 Some results are limits rather than exact numbers.

With `CCN(CC)c1ccc(/C=c2\nc(-c3ccccc3)n3c2nc2ccccc23)cc1`, the TGI in assay [1] was above 100 µM; in [2], above 100 µM; in assay [3], 23.3 µM; in [4] it was above 100 µM; in [5], above 100 µM; in assay [6], 45.8 µM. Also, the TGI in assay [7] was above 100 µM; in [8], 72.2 µM; in assay [9], above 100 µM.

On to `O=c1c(/C=C/c2c(O)ccc3ccccc23)nnc2sc(-c3cccc([N+](=O)[O-])c3)nn12`, for which the TGI in assay [1] is above 100 µM; in assay [2] it was 7.23 µM; in assay [5] it was 89.3 µM; in [6], 82.6 µM; in [7], above 100 µM; in assay [8] it was above 100 µM. Moreover, the TGI in assay [10] was determined as 13.5 µM; in assay [9], 28.4 µM.

For `CCOC(O)C(F)(F)F` (centres undefined), the TGI in assay [1], in assay [2], in assay [3], in [5], in assay [6] and in assay [10] was above 100 µM each time. This molecule also showed a TGI in [9] above 100 µM.

Regarding `CCC(C)NC(=S)N/N=C(\C)c1ccccn1` (centres undefined), the TGI in assay [1] is above 100 µM; in assay [2] it was 23.4 µM; in assay [3] it was above 100 µM; in [4], above 26 µM; in assay [5], above 100 µM; in [6], above 33.2 µM. Besides, the TGI is above 30.7 µM in [7], above 100 µM in assay [8] and 0.14 µM in [9].

In the case of `C=C(C)[C@@H]1CC[C@]2(CO)CC[C@]3(C)[C@H](CC[C@@H]4[C@@]5(C)CC[C@H](O)C(C)(C)[C@@H]5CC[C@]43C)[C@@H]12`, the TGI was above 100 µM in assay [1]; 66.4 µM in assay [2]; 61.9 µM in [4]; 38 µM in assay [5]; 27.8 µM in [6]; above 100 µM in assay [7]. The TGI is 39.8 µM in assay [8], above 100 µM in [10] and above 100 µM in assay [9].

Regarding `N#Cc1ccc(OC(=O)c2ccc(N=C(N)N)cc2)cc1`, the TGI in assay [1], in assay [2], in assay [4], in assay [5], in [6] and in [7] was above 100 µM each time. In addition, the TGI in [8], in assay [10] and in [9] was above 100 µM in each case.

As to `CC(=O)N1CC(C)(C)c2c1cc(C)c(O)c2C`, the TGI in assay [1], in assay [2], in assay [3], in assay [4], in assay [5] and in assay [6] was above 100 µM throughout. The TGI in assay [7], in assay [10] and in [9] was above 100 µM throughout.

For the molecule `O=C1c2cc([N+](=O)[O-])cnc2S(=O)(=O)N1c1ccc(Br)cc1`, the TGI in assay [1], in [2], in assay [3], in assay [5], in assay [6] and in assay [7] was above 100 µM each time. The TGI in [8], in assay [10] and in [9] was above 100 µM throughout.

As to `CCn1nc(-c2ccccc2)c2c1N(C)c1ccccc1-n1c(-c3ccccc3)nnc1-2`, the TGI in [1] worked out at 28.2 µM; in [3] it was 29.3 µM; in [4] it was 11.2 µM; in [5], 31.1 µM; in assay [7] it was 40.3 µM.

On to `CC1(C)C2CCC1(C)C(N/C(=C(/C(Cl)=C(Cl)Cl)[N+](=O)[O-])n1nnc3ccccc31)C2` (centres undefined), for which the TGI in assay [1] is 52.2 µM; in assay [2], 32.6 µM; in assay [3] it was above 100 µM; in assay [4], 37.5 µM; in [6] it was 52.3 µM; in [8], 48.5 µM.

On to `N#CC(c1nc2ccccc2s1)c1nc(Cl)ncc1Br` (centres undefined), for which the TGI in [1] was 73.9 µM; in [2] it was 97.7 µM; in [4], above 100 µM; in [5], above 100 µM; in assay [6] it was above 100 µM; in [7], above 100 µM. Besides, the TGI in [8] was 80.5 µM; in assay [9], above 100 µM.

In the case of `O=C1OC(C2Cc3ccccc3C2=O)c2ccccc21` (centres undefined), the TGI in assay [1], in assay [2], in assay [3], in [5], in [6] and in assay [7] was above 100 µM throughout. The TGI in [8], in [10] and in assay [9] was above 100 µM in each case.

As to `CC(=O)Nc1ccc(N2C(=O)CS(=O)(=O)C2c2cccc(Oc3ccccc3)c2)cc1` (centres undefined), the TGI turned out to be 43.5 µM in [1]; 38.2 µM in [2]; 41.7 µM in assay [5]; 36.7 µM in assay [6]; 32 µM in assay [8]; 84.8 µM in assay [10]. Besides, the TGI in assay [9] stood at 62.9 µM.

For `OCc1c2c(cc3c1CC1(C3)Cc3cc4c(c(CO)c3C1)CCC4)CCC2`, the TGI in assay [1] was 29.8 µM; in [2] it was 28.3 µM; in [3] it was 35 µM; in [4], 30.3 µM; in assay [5], 36.2 µM; in assay [6] it was 26.9 µM. Besides, the TGI in assay [7] came to 30.2 µM; in assay [10], 18.4 µM; in assay [9], 28.3 µM.

Turning to `CC(C)=NNc1cnnc2ccc([N+](=O)[O-])cc12`, the TGI in [1] was above 100 µM; in assay [6], above 100 µM; in assay [7], above 100 µM; in assay [8] it was above 100 µM; in assay [10] it was 43.2 µM; in assay [9], above 100 µM.

Take `O=C1CSC(c2cccc(Cl)c2)N1c1c(O)c(Cl)cc(Br)c1Cl` (centres undefined): the TGI is above 100 µM in assay [1]; 33.4 µM in assay [2]; above 100 µM in [4]; above 100 µM in assay [5]; above 100 µM in assay [6]; 51.8 µM in assay [10]. Also, the TGI in assay [9] worked out at 57.9 µM.

Regarding `Cc1ccc(S(=O)(=O)NC(=O)NC(Cc2ccccc2)C(=O)O)cc1` (centres undefined), the TGI in assay [1], in assay [5], in assay [6], in assay [7], in assay [8] and in [10] was above 100 µM in each case. The molecule further gave a TGI in assay [9] above 100 µM.

Turning to `CN(C)Cc1cc(C(C)(C)C)cc(CNC2CCCCC2)c1O`, the TGI in assay [1] was above 100 µM; in assay [2] it was above 100 µM; in assay [3], 23.7 µM; in [4], above 100 µM; in assay [5], above 100 µM; in [6] it was 57.1 µM. The TGI was above 100 µM in [7], above 100 µM in assay [8] and 33.5 µM in assay [9].

With `O=c1[nH]c(=S)c2cc3c(=S)[nH]c(=O)n(CCC(c4ccccc4)(c4ccccc4)c4ccccc4)c3nc2n1CCC(c1ccccc1)(c1ccccc1)c1ccccc1`, the TGI in [1], in assay [2], in assay [3], in assay [4], in assay [5] and in assay [6] was above 100 µM in each case. For the same molecule, the TGI in assay [8] was above 100 µM; in assay [9] it was 84.1 µM.

For `CCSCC(=O)N1CCc2c([nH]c3ccccc23)C1=O`, the TGI in [1], in assay [2], in assay [3], in assay [5], in [6] and in assay [7] was above 100 µM throughout. Further, the TGI in assay [8], in assay [10] and in [9] was above 100 µM throughout.

With `Cc1c(NC(=S)N/N=C\C(=N/NC(=S)Nc2c(C)n(C)n(-c3ccccc3)c2=O)c2ccccc2)c(=O)n(-c2ccccc2)n1C`, the TGI in [1], in assay [2], in assay [3], in assay [4], in assay [5] and in [6] was above 100 µM throughout. In addition, the TGI in assay [8] and in [9] was above 100 µM each time.

For the molecule `N#Cc1nc(C(F)(F)F)oc1N`, the TGI in assay [1], in assay [2], in [3], in [4], in assay [5] and in assay [6] was above 100 µM each time. Besides, the TGI in assay [7], in assay [10] and in assay [9] was above 100 µM each time.

`Cc1ccc2ccc(=O)oc2c1`: the TGI in assay [1], in [2], in [4], in assay [5], in assay [6] and in [7] was above 100 µM in each case. For the same molecule, the TGI in assay [8], in [10] and in assay [9] was above 100 µM each time.

As to `COc1ccc(OC)c(C(=O)/C=C/c2cc(O)c(O)cc2F)c1`, the TGI in assay [1] amounted to 10.4 µM; in assay [2], 1.59 µM; in assay [3], 1.98 µM; in assay [4] it was 12.5 µM; in assay [5] it was 21.6 µM; in assay [6], 9.25 µM. Also, the TGI in assay [7] was determined as 34.2 µM; in assay [8], 19.6 µM.

Consider `CCOC(=O)CN=C1Nc2ccccc2C(=O)N2CSCC12` (centres undefined), for which the TGI in assay [2], in [3], in assay [4], in assay [5], in assay [6] and in assay [7] was above 100 µM each time. The TGI in [8] and in assay [9] was above 100 µM throughout.

For `COc1ccc(C[C@H]2NC(=O)/C=C/C[C@@H]([C@H](C)[C@H]3O[C@@H]3c3ccccc3)OC(=O)[C@H](CC(C)C)OC(=O)[C@H](C)CNC2=O)cc1`, the TGI is above 7.34e-05 µM in assay [1]; above 0.0001 µM in assay [2]; above 0.0001 µM in assay [3]; 8.37e-05 µM in [4]; above 0.0001 µM in assay [5]; above 6.84e-05 µM in assay [6]. Besides, the values for the TGI in assay [7], in [10] and in assay [9] were above 0.0001 µM, 5.2e-05 µM and above 0.0001 µM, respectively.

As to `O=C(Nc1ccc(Cl)cc1)c1cccc([N+](=O)[O-])c1O`, the TGI in assay [1] is 6.55 µM; in assay [2] it was 9.09 µM; in [3], 14.4 µM; in [4], 7.32 µM; in assay [5], above 44.4 µM; in [6], 15.5 µM. In addition, the values for the TGI in [7], in [10] and in [9] were above 80.3 µM, 7.18 µM and 10.1 µM, respectively.

On to `CC(=O)c1cc2c(s1)C(=O)c1scc(C(C)=O)c1C2=O`, for which the TGI in assay [1] came to 1.72 µM; in assay [2] it was 0.271 µM; in assay [3], 3.58 µM; in assay [4], 4 µM; in assay [5] it was 9.9 µM; in [6], 2.15 µM. The TGI was determined as 1.37 µM in [7] and 2.68 µM in [8].

In the case of `O=C(Nc1ccc(-n2cc(-c3ccncc3)c(-c3ccc(O)c(Cl)c3)n2)cc1)c1cc(Cl)cc(Cl)c1`, the GI50 was 12.1 µM in assay [1]; 1.91 µM in assay [2]; 11.8 µM in assay [3]; above 32.5 µM in assay [4]; 6.8 µM in assay [5]; 1.05 µM in assay [6]. Further, the GI50 was above 32.5 µM in assay [7], 1.6 µM in assay [10] and 1.29 µM in assay [9]. Moreover, the TGI is above 32.5 µM in assay [1]; above 32.5 µM in [2]; above 32.5 µM in assay [3]; above 32.5 µM in [4]; above 32.5 µM in [5]; 5.3 µM in assay [6]. The TGI in [7], in assay [10] and in assay [9] was above 32.5 µM each time.

Consider `NC(CCl)=NC1CN2CCC1CC2` (centres undefined), for which the TGI in assay [1], in [2], in [4], in assay [5], in assay [6] and in [7] was above 100 µM in each case. Further, the TGI in [8], in assay [10] and in assay [9] was above 100 µM throughout.

These data come from PubChem BioAssay (NCI).
